Laboratory results: US8748421B2, “Triazine compounds as P13 kinase and MTOR inhibitors” (Wyeth LLC, priority 2009, dated 2014)

Experiments:
[1] = molecular target: human SMG-1 (hSMG-1) (Homo sapiens, UniProt Q96Q15); experiment: hSMG-1 kinase assay (DELFIA); assay type: biochemical
[2] = tested on: human prostate LNCap tumor cell line; experiment: In vitro cell culture growth assay (MTS), LNCap; conditions: 72 h, read-out: IC50 LNCap
[3] = tested on: human prostate PC3-mm2 tumor cell line; experiment: In vitro cell culture growth assay (MTS), PC3-mm2; assay type: cell-based; conditions: PC3MM2, 72 h, human prostate PC3-mm2 cells, three days after drug treatment
[4] = tested on: human breast MDA-MB-361 tumor cell line; experiment: In vitro cell culture growth assay (MTS), MDA-MB-361; assay type: cell-based; conditions: 72 h, human breast MDA-MB-361 cells, three days after drug treatment
[5] = molecular target: PI3K-alpha (Homo sapiens, UniProt P42336); experiment: PI3K-alpha fluorescence polarization assay; conditions: read-out: IC50 PI3Kα
[6] = molecular target: PI3K-gamma (Homo sapiens, UniProt P48736); experiment: PI3K-gamma fluorescence polarization assay; conditions: read-out: IC50 PI3Kγ
[7] = tested on: acute lymphoblastic leukemia xenograft; conditions: NOS/SCID mouse; cited from earlier work
[8] = tested on: human tumor xenograft models; conditions: chronic oral administration, 400 mg/kg; A549, PC-3, WiDr; cited from earlier work

Chain of PI3K-alpha (P42336 whole entry, species assumed): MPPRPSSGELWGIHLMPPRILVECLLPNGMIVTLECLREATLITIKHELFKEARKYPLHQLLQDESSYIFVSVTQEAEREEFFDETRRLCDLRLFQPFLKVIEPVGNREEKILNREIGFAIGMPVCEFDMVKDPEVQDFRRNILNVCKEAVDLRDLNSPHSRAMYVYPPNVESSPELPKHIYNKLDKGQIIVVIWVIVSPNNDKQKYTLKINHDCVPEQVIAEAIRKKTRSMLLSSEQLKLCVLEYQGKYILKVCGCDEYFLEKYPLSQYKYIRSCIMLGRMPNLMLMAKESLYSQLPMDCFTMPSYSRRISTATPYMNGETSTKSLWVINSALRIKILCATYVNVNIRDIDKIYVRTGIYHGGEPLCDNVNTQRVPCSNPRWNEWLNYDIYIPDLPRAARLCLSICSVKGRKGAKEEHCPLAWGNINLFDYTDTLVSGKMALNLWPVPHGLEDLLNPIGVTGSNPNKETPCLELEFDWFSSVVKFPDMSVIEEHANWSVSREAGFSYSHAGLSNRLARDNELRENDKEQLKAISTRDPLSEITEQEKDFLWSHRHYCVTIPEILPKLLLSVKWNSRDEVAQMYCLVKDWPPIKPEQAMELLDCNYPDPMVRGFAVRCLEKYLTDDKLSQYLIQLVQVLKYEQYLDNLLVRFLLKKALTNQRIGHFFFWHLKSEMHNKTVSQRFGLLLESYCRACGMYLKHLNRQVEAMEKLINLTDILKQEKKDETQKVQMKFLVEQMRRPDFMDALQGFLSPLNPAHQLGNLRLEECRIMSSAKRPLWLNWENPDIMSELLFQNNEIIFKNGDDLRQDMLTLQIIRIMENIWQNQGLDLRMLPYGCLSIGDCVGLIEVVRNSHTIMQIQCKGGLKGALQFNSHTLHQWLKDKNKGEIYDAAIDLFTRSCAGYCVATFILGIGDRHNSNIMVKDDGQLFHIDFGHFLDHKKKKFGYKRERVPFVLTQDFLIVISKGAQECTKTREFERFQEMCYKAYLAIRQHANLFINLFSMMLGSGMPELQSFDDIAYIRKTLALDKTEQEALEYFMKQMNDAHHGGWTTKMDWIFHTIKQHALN
Chain of PI3K-alpha (P27986 whole entry partner, species assumed): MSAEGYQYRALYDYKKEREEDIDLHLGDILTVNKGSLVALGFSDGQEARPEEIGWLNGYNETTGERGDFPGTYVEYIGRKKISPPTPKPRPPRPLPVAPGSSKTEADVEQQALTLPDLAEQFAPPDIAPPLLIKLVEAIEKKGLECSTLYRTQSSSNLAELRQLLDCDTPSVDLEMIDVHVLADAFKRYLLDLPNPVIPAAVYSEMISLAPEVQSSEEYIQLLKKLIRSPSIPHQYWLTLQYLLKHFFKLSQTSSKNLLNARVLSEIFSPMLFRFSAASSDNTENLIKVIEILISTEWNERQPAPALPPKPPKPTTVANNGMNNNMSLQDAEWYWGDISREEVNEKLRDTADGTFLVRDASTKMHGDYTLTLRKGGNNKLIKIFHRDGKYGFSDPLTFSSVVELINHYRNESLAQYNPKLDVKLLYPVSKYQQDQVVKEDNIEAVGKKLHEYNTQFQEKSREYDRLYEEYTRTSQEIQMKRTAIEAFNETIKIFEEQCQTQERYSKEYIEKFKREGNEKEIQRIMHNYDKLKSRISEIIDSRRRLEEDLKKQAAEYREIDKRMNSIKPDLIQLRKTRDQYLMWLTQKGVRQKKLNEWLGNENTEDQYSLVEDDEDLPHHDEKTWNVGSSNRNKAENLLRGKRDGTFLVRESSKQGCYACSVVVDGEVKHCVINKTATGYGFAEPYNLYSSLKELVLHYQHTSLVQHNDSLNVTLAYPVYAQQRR
Chain of PI3K-gamma (P48736 whole entry, species assumed): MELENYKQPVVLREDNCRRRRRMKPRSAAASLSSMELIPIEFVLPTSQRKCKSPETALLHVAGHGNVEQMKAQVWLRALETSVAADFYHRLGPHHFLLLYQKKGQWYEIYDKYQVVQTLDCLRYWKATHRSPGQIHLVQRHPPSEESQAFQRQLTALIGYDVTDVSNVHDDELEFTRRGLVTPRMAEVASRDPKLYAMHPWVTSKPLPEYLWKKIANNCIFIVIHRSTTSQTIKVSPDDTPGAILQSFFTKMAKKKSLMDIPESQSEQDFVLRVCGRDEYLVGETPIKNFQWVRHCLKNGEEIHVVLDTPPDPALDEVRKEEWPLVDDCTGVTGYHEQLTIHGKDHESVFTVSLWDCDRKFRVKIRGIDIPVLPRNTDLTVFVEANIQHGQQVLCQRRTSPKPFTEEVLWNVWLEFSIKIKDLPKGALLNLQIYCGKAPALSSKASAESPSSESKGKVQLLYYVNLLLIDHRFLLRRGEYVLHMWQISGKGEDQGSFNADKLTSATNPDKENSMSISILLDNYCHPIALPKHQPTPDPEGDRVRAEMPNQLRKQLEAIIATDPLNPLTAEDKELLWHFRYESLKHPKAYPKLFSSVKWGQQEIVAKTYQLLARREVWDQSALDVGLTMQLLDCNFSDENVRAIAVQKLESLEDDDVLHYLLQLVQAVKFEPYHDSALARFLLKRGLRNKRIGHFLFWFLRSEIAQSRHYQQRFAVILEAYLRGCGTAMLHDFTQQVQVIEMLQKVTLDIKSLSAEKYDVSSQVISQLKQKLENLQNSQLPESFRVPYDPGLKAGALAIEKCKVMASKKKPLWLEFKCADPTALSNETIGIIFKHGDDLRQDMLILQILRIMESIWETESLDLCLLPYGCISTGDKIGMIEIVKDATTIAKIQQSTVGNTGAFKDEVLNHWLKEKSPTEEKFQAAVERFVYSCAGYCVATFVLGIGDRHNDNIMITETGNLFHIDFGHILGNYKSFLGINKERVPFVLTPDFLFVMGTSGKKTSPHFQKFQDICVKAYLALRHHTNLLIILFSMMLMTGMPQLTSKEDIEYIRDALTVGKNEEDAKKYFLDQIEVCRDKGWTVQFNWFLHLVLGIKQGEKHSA

Row | IC50 [5] [nM] | IC50 [6] [nM] | SMILES | further results
1 |  |  | CNC(=O)Nc1ccc(-c2nc(-c3ccc(NC(=O)Nc4ccc(C(N)=O)cc4)cc3)nc(N3CCOCC3)n2)cc1 [Example 462, 4-({[4-(4-{4-[(methylcarbamoyl)amino]phenyl}-6-morpholin-4-yl-1,3,5-triazin-2-yl)phenyl]carbamoyl}amino)benzamide] | IC50 [1]: 1 nM
2 |  |  | CNC(=O)Nc1ccc(-c2nc(-c3ccc(NC(=O)Nc4cccc(C(N)=O)c4)cc3)nc(N3CCOCC3)n2)cc1 [Example 466, 3-({[4-(4-{4-[(methylcarbamoyl)amino]phenyl}-6-morpholin-4-yl-1,3,5-triazin-2-yl)phenyl]carbamoyl}amino)benzamide] | IC50 [2]: 420 nM
3 |  |  | CN(C)CCNC(=O)c1ccc(NC(=O)Nc2ccc(-c3nc(N4CCCCC4)nc(N4CCOCC4)n3)cc2)cc1 [Example 601, N-[2-(dimethylamino)ethyl]-4-({[4-(4-morpholin-4-yl-6-piperidin-1-yl-1,3,5-triazin-2-yl)phenyl]carbamoyl}amino)benzamide] | IC50 [3]: 155 nM; IC50 [4]: 22 nM
4 | 0.4 | 5.55 | CC(C)N1CCN(C(=O)c2ccc(NC(=O)Nc3ccc(-c4nc(N5CCOCC5)nc(N5CCOCC5)n4)cc3)cc2)C[C@H]1C [Example 852, 1-{4-[4,6-di(morpholin-4-yl)-1,3,5-triazin-2-yl]phenyl}-3-(4-{[(3R)-3-methyl-4-(propan-2-yl)piperazin-1-yl]carbonyl}phenyl)urea] | 
5 | 0.3 | 5.05 | C[C@H]1CN(C(=O)c2ccc(NC(=O)Nc3ccc(-c4nc(N5CCOCC5)nc(N5CCOCC5)n4)cc3)cc2)CCN1 [Example 853, 1-{4-[4,6-di(morpholin-4-yl)-1,3,5-triazin-2-yl]phenyl}-3-(4-{[(3S)-3-methylpiperazin-1-yl]carbonyl}phenyl)urea] | 
6 | 8.84 | 164 | CC(C)N1CCCN(c2nc(-c3ccc(NC(=O)Nc4ccc(C(=O)N(C)CCN(C)C)cc4)cc3)nc(N3CCOC[C@@H]3C)n2)CC1 [Example 854, N-[2-(dimethylamino)ethyl]-N-methyl-4-{[(4-{4-[(3S)-3-methylmorpholin-4-yl]-6-[4-(propan-2-yl)-1,4-diazepan-1-yl]-1,3,5-triazin-2-yl}phenyl)carbamoyl]amino}benzamide] | 
7 | 54 | 864 | CC(C)N1CCCN(c2nc(-c3ccc(NC(=O)Nc4ccc(C(=O)N5CCN(C)CC5)cc4)cc3)nc(N3CCOC[C@@H]3C)n2)CC1 [Example 855, 1-(4-{4-[(3S)-3-methylmorpholin-4-yl]-6-[4-(propan-2-yl)-1,4-diazepan-1-yl]-1,3,5-triazin-2-yl}phenyl)-3-{4-[(4-methylpiperazin-1-yl)carbonyl]phenyl}urea] | 
8 | 28.5 | 532 | CC(C)N1CCCN(c2nc(-c3ccc(NC(=O)Nc4ccc(C(=O)N5CC[C@H](N(C)C)C5)cc4)cc3)nc(N3CCOC[C@@H]3C)n2)CC1 [Example 856, 1-(4-{[(3S)-3-(dimethylamino)pyrrolidin-1-yl]carbonyl}phenyl)-3-(4-{4-[(3S)-3-methylmorpholin-4-yl]-6-[4-(propan-2-yl)-1,4-diazepan-1-yl]-1,3,5-triazin-2-yl}phenyl)urea] | 
9 | 10 | 146 | CC(C)N1CCCN(c2nc(-c3ccc(NC(=O)Nc4ccc(C(=O)NCCCN(C)C)cc4)cc3)nc(N3CCOCC3)n2)CC1 [Example 857, N-[3-(dimethylamino)propyl]-4-{[(4-{4-(morpholin-4-yl)-6-[4-(propan-2-yl)-1,4-diazepan-1-yl]-1,3,5-triazin-2-yl}phenyl)carbamoyl]amino}benzamide] | 
10 | 5 | 134 | CC(C)N1CCCN(c2nc(-c3ccc(NC(=O)Nc4ccc(C(=O)N(C)CCN(C)C)cc4)cc3)nc(N3CCOCC3)n2)CC1 [Example 858, N-[2-(dimethylamino)ethyl]-N-methyl-4-{[(4-{4-(morpholin-4-yl)-6-[4-(propan-2-yl)-1,4-diazepan-1-yl]-1,3,5-triazin-2-yl}phenyl)carbamoyl]amino}benzamide] | 
11 | 17.9 | 240 | CC(C)N1CCCN(c2nc(-c3ccc(NC(=O)Nc4ccc(C(=O)N5CCOCC5)cc4)cc3)nc(N3CCOCC3)n2)CC1 [Example 859, 1-[4-(morpholin-4-ylcarbonyl)phenyl]-3-(4-{4-(morpholin-4-yl)-6-[4-(propan-2-yl)-1,4-diazepan-1-yl]-1,3,5-triazin-2-yl}phenyl)urea] | 
12 | 57 | 434 | COCCNC(=O)c1ccc(NC(=O)Nc2ccc(-c3nc(N4CCOCC4)nc(N4CCCN(C(C)C)CC4)n3)cc2)cc1 [Example 860, N-(2-methoxyethyl)-4-{[(4-{4-(morpholin-4-yl)-6-[4-(propan-2-yl)-1,4-diazepan-1-yl]-1,3,5-triazin-2-yl}phenyl)carbamoyl]amino}benzamide] | 
13 | 4 | 56 | CC(C)N1CCCN(c2nc(-c3ccc(NC(=O)Nc4ccc(C(=O)N5CCCNCC5)cc4)cc3)nc(N3CCOCC3)n2)CC1 [Example 861, 1-[4-(1,4-diazepan-1-ylcarbonyl)phenyl]-3-(4-{4-(morpholin-4-yl)-6-[4-(propan-2-yl)-1,4-diazepan-1-yl]-1,3,5-triazin-2-yl}phenyl)urea] | 
14 | 23.5 | 154 | CC(C)N1CCCN(C(=O)c2ccc(NC(=O)Nc3ccc(-c4nc(N5CCOCC5)nc(N5CCCN(C(C)C)CC5)n4)cc3)cc2)CC1 [Example 862, 1-(4-{4-(morpholin-4-yl)-6-[4-(propan-2-yl)-1,4-diazepan-1-yl]-1,3,5-triazin-2-yl}phenyl)-3-(4-{[4-(propan-2-yl)-1,4-diazepan-1-yl]carbonyl}phenyl)urea] | 
15 | 2.1 | 8 | C[C@H]1CN(C(=O)c2ccc(NC(=O)Nc3ccc(-c4nc(N5CCOCC5)nc(N5CCOCC5)n4)cc3)cc2)CCN1C1CCC1 [Example 863, 1-(4-{[(3S)-4-cyclobutyl-3-methylpiperazin-1-yl]carbonyl}phenyl)-3-{4-[4,6-di(morpholin-4-yl)-1,3,5-triazin-2-yl]phenyl}urea] | 
16 | 1 | 7.5 | C[C@H]1CN(C(=O)c2ccc(NC(=O)Nc3ccc(-c4nc(N5CCOCC5)nc(N5CCOCC5)n4)cc3)cc2)CCN1C [Example 864, 1-(4-{[(3S)-3,4-dimethylpiperazin-1-yl]carbonyl}phenyl)-3-{4-[4,6-di(morpholin-4-yl)-1,3,5-triazin-2-yl]phenyl}urea] | 
17 | 2.45 | 12 | CN1CCN(C(=O)c2ccc(NC(=O)Nc3ccc(-c4nc(C5CCOCC5)nc(N5CCOCC5)n4)cc3)cc2)CC1(C)C [Example 865, 1-{4-[4-(morpholin-4-yl)-6-(tetrahydro-2H-pyran-4-yl)-1,3,5-triazin-2-yl]phenyl}-3-{4-[(3,3,4-trimethylpiperazin-1-yl)carbonyl]phenyl}urea] | 
18 | 1.6 | 16.5 | C[C@H]1CN(C(=O)c2ccc(NC(=O)Nc3ccc(-c4nc(C5CCOCC5)nc(N5CCOCC5)n4)cc3)cc2)CCN1C [Example 866, 1-(4-{[(3S)-3,4-dimethylpiperazin-1-yl]carbonyl}phenyl)-3-{4-[4-(morpholin-4-yl)-6-(tetrahydro-2H-pyran-4-yl)-1,3,5-triazin-2-yl]phenyl}urea] | 
19 | 0.4 | 7 | C[C@H]1CN(C(=O)c2ccc(NC(=O)Nc3ccc(-c4nc(C5CCOCC5)nc(N5CCOCC5)n4)cc3)cc2)CCN1 [Example 867, 1-(4-{[(3S)-3-methylpiperazin-1-yl]carbonyl}phenyl)-3-{4-[4-(morpholin-4-yl)-6-(tetrahydro-2H-pyran-4-yl)-1,3,5-triazin-2-yl]phenyl}urea] | 
20 | 0.65 | 4.5 | CN(C)[C@@H]1CCN(C(=O)c2ccc(NC(=O)Nc3ccc(-c4nc(C5CCOCC5)nc(N5CCOCC5)n4)cc3)cc2)C1 [Example 868, 1-(4-{[(3R)-3-(dimethylamino)pyrrolidin-1-yl]carbonyl}phenyl)-3-{4-[4-morpholin-4-yl-6-(tetrahydro-2H-pyran-4-yl)-1,3,5-triazin-2-yl]phenyl}urea] | 
21 | 0.6 | 6.5 | CN(C)[C@H]1CCN(C(=O)c2ccc(NC(=O)Nc3ccc(-c4nc(C5CCOCC5)nc(N5CCOCC5)n4)cc3)cc2)C1 [Example 869, 1-(4-{[(3S)-3-(dimethylamino)pyrrolidin-1-yl]carbonyl}phenyl)-3-{4-[4-morpholin-4-yl-6-(tetrahydro-2H-pyran-4-yl)-1,3,5-triazin-2-yl]phenyl}urea] | 
22 |  |  | CO[C@H]1C[C@@H]2CC[C@@H](C)[C@@](O)(O2)C(=O)C(=O)N2CCCC[C@H]2C(=O)O[C@H]([C@H](C)C[C@@H]2CC[C@@H](OC(=O)C(C)(CO)CO)[C@H](OC)C2)CC(=O)[C@H](C)/C=C(\C)[C@@H](O)[C@@H](OC)C(=O)[C@H](C)C[C@H](C)/C=C/C=C/C=C/1C [Torisel] | activity in xenograft mouse model of acute lymphoblastic leukemia [7]: active
23 |  |  | FC(F)c1nc2ccccc2n1-c1nc(N2CCOCC2)nc(N2CCOCC2)n1 [ZSTK474, 2-(2-difluoromethylbenzoimidazol-1-yl)-4,6-dimorpholino-1,3,5-triazine] | tumor growth inhibition in mouse human xenograft cancer models [8]: completely inhibited growth
